One experiment addresses T1, GSTPH(GRP) (Mus musculus, UniProt O08967).
T1 construct: residues 239 to 399 (PH domain); made in house; host or cells: bacteria
T1 sequence (O08967 239-399): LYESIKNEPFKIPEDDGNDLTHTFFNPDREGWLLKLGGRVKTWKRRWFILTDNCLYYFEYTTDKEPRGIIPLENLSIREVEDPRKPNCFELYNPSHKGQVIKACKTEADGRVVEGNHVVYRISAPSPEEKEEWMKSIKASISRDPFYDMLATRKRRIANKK
Put plainly: Competition of [32P]PI(3,4,5)P3 binding to GST-PH by inositol phosphate head groups. Also on record: species or system murine. The text has this:
To generate the GST fusion proteins, PCR reactions using the primers: […] (SEQ ID NO:9) and […] (SEQ ID NO:10) for the GST-N construct, […] (SEQ ID NO:11) and […] (SEQ ID NO:12) for the GST-Sec7 construct, […] (SEQ ID NO:13) and […] (SEQ ID NO:14) for the GSTPH construct, and […] (SEQ ID NO:15) and […] (SEQ ID NO:16) for the GSTGRP constructs. The sequences of the PCR products were verified, and cloned into pGEX-5X-3 in the EcoRI and Xba 1 sites. The bacteria were lysed and the fusion proteins were bound to gluthathione agarose according to standard procedures. Elution was effected by incubation of the beads with one volume 20 mM Hepes, 100 mM NaCl, 1 mM dithiotreitol (H buffer) supplemented with 10 mM gluthatione and 1% sodium cholate, and the eluate was dialyzed extensively against H buffer. For binding assays, protein was bound to nitrocellulose using a BIO-RAD BIO-DOT™ apparatus, using 150 pmol per well for binding assays and 7.5 pmol for competition assays. The nitrocellulose was washed in assay buffer, and 3 mm circles of the filters containing the protein were cut out and incubated in […] assay buffer with the relevant lipids and competitors for 2 h under constant agitation. The filters were washed four times with 1 mL assay buffer and counted in a scintillation counter.
The specificity of the GRP PH domain for binding [^32 P]PI(3,4,5,)P3 was also examined with respect to competition by the inositol phosphate head groups of the phosphoinositides. […] More specifically, 25,000 cpm of [^32 P]PI(3,4,5)P3 was incubated with varying concentrations of inositol 1 ,3,4,5P4 and bound radioactivity determined. The amount of radioactivity bound was calculated as percent of that bound in the absence of competitor. The values are means of quadruplicate measurements, and the error bars are standard deviations. The lack of inhibition by the latter two phosphoinositides is particularly striking since they carry the same charge as the inhibitor […] The concentration of inositol 1,3,4,5-P4 that inhibited binding of [^32 p]PI(3,4,5,)P3 half maximally was about 3-6 μM (FIG. 5A). Taken together, the data in FIGS. 4 and 5 indicate extraordinary specificity of the GRP PH domain for PI(3,4,5)P3. […] The binding to GST fusion proteins containing amino acids 462-569 of murine Sos or amino acid 13-115 of murine IRS-1 was assayed using 150 pmoles of protein bound to the filters. Competition of binding to 7.5 pmoles of GST-PH was measured in the presence of 100 μM of the competitors. The values were calculated as in (A), and are means of quadruplicate measurements and the error bars represent standard deviations.

The next experiment deals with T2, GRP (Mus musculus, UniProt O08967).
T2 construct: GST (N, cleaved yes); made in house; host or cells: GRP from pGEX-4T; ARF1 from baculovirus-infected Sf-9 cells
T2 sequence (O08967 1-399): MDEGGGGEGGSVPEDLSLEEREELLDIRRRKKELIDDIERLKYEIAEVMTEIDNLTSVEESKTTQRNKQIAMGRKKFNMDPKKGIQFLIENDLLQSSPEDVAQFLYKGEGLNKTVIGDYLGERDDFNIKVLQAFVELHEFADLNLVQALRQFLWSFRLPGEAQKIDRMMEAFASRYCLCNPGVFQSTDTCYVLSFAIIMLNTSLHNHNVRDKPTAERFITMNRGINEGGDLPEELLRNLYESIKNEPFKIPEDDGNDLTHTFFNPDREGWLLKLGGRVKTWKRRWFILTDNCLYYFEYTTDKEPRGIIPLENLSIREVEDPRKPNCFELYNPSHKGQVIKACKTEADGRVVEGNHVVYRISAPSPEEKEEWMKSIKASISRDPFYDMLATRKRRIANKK
Nature of the experiment: Inhibition by inositol phosphates of PtdIns(3,4,5)P3-stimulated GRP-mediated ARF1 exchange. Format: biochemical. Particulars: 100 μM inositol phosphate, 0.05% cholate and 0.05% CHAPS.

The next experiment concerns PH domain of PLCγ1. The following applies: cited from earlier work.
For experiment [1], the target named is T3, PH domain of GRP (Mus musculus, UniProt O08967).
T3 sequence (O08967 239-399): T1 sequence (O08967 239-399)
Nature of the experiment: Binding of [3H]dioctanoyl PtdIns(3,4,5)P3 to GST-PH of GRP. Further details: GST fused to the PH region of GRP (amino acids 239-399); made in house; host or cells: bacteria. Here is the method:
Binding assays were performed as described in (Rameh, L. E. et al., J. Biol. Chem., In Press). Briefly, GST fused to the PH region of GRP (amino acids 239-399) was bound to glutathione immobilized on agarose beads (Sigma). Synthetic [^3 H]-labeled diotanoyl PtdIns(3,4,5)P3 was added, and after one hour the beads were separated from the supernatant by centrifugation. The amount of [^3 H]-PtdIns(3,4,5)P3 bound to the PH domain was calculated by subtracting the amount of free [^3 H] present in supernatants from GST-GRP from the amount of free [^3 H] in supernatants from control GST. The data was fitted to the equation [bound]=Bmax×[free]/(KD + [free]) by least squares curve fit. For the competition assays the beads containing the GST-fusion proteins were incubated with 2.5 μM[^3 H]-labeled dioctanoyl PtdIns(3,4,5)P3 bound was calculated based on the amount of [^3 H] bound to the beads in the absence of competitor. […]
The data depicted in FIG. 8 indicate that receptor signaling through PI3-kinases, which generates PtdIns(3,4,5)P3, may specifically regulate ARF proteins through GRP. In order to further test this, the relative binding affinities of PtdIns(3,4,5)P3 versus PtdIns (4,5)P2, which is constitutively present in cell membranes, for the PH domain of GRP were determined. […] These experiments show high affinity binding of this polyphosphoinositide,with a calculated Kd=0.5 μM.

Experiment [2] addresses T3, PH domain of GRP. Nature of the experiment: Competition for [3H]dioctanoyl PtdIns(3,4,5)P3 binding to the PH domain of GRP. Also on record: GST fused to the PH region of GRP (amino acids 239-399); made in house; host or cells: bacteria. The following applies: identical fatty acyl side chains (dioctanoyl). The protocol:
Binding assays were performed as described in (Rameh, L. E. et al., J. Biol. Chem., In Press). Briefly, GST fused to the PH region of GRP (amino acids 239-399) was bound to glutathione immobilized on agarose beads (Sigma). Synthetic [^3 H]-labeled diotanoyl PtdIns(3,4,5)P3 was added, and after one hour the beads were separated from the supernatant by centrifugation. The amount of [^3 H]-PtdIns(3,4,5)P3 bound to the PH domain was calculated by subtracting the amount of free [^3 H] present in supernatants from GST-GRP from the amount of free [^3 H] in supernatants from control GST. The data was fitted to the equation [bound]=Bmax×[free]/(KD + [free]) by least squares curve fit. For the competition assays the beads containing the GST-fusion proteins were incubated with 2.5 μM[^3 H]-labeled dioctanoyl PtdIns(3,4,5)P3 bound was calculated based on the amount of [^3 H] bound to the beads in the absence of competitor. The total [^3 H] bound to the GST control was less then 0.5% of the total [^3 H] bound to GRP PH domain. The data was fitted to the equation % bound=100-n×L/Klapp +L) where n is the % specific binding, L is the concentration of unlabeled lipid added and Klapp is the apparent competitive dissociation constant. The rations of the apparent dissociation constants accurately reflect the ratios of the true dissociation constants under the present experimental conditions (Rameh, L. E. et al., J. Biol. Chem., In Press).
The data depicted in FIG. 8 indicate that receptor signaling through PI3-kinases, which generates PtdIns(3,4,5)P3, may specifically regulate ARF proteins through GRP. In order to further test this, the relative binding affinities of PtdIns(3,4,5)P3 versus PtdIns (4,5)P2, which is constitutively present in cell membranes, for the PH domain of GRP were determined. A GST fusion protein of the PH domain of GRP was incubated with various concentrations of synthetic [^3 H]dioctanoyl PtdIns(3,4,5)P3 and binding was determined (FIG. 9A). These experiments show high affinity binding of this polyphosphoinositide,with a calculated Kd=0.5 μM.

SMILES strings stand for the structures. Where two headings read alike, the source gives them in different places.

As to `O=P(O)(O)O[C@@H]1[C@H](O)[C@H](O)[C@@H](OP(=O)(O)O)[C@H](OP(=O)(O)O)[C@H]1O` [Ins(1,4,5)P3, D-myo-inositol 1,4,5 trisphosphate], the “inhibition of [^32 P]PI(3,4,5)P3 binding to GST-PH(GRP)” value on GSTPH(GRP) (100 μM competitor) is “little or no effect”. For the same molecule, on GSTPH(GRP) (statement in the description), the “binding of inositol phosphate to GRP polypeptides” value was “not”. Besides, the “inhibition of PtdIns(3,4,5)P3-stimulated GRP-mediated ARF1 guanine nucleotide exchange” value on GRP is given as “failed to inhibit”. The “interaction with isolated PH domain of PLCγ1” value in the experiment with PH domain of PLCγ1 is recorded as “high affinity”.

As to `CCCCCCCC(=O)OCC(COP(=O)(O)O[C@H]1[C@H](O)[C@@H](OP(=O)(O)O)[C@H](OP(=O)(O)O)[C@@H](OP(=O)(O)O)[C@H]1O)OC(=O)CCCCCCC` (stereo partly shown) [[^3 H]dioctanoyl PtdIns(3,4,5)P3], the Kd on PH domain of GRP [1] is 0.51 µM; on PH domain of GRP [1] (synthetic [^3 H]dioctanoyl PtdIns(3,4,5)P3) it was 0.5 µM.

As to `CCCCCCCC(=O)OC[C@H](COP(=O)(O)O[C@H]1[C@H](O)[C@@H](OP(=O)(O)O)[C@H](OP(=O)(O)O)[C@@H](OP(=O)(O)O)[C@H]1O)OC(=O)CCCCCCC` [dioctanoyl PtdIns(3,4,5)P3], the “affinity, fold higher compared to PtdIns(4,5)P2” value at PH domain of GRP [2] was 50-100 fold.

The values are drawn from US6194173A, “Binding proteins for phosphoinositides, GRP1 or general receptor 1 for phophoinositide” (priority 1999, dated 2001).
